Measurements published in patent publication US4273866A, “Ligand analog-irreversible enzyme inhibitor conjugates and methods for use” (priority 1979, dated 1981).

Molecular target: acetylcholinesterase (T.californica) (Tetronarce californica, UniProt P04058)
Test: Antibody modulation of inhibition by Compound II and reversal by cholylglycine
Type: biochemical
Description: Antibody against cholylglycine-bovine serum albumin (BSA) conjugates were raised in rabbits, and the rabbit serum obtained by conventional techniques. The anti-cholylglycine IgG fraction was obtained by ammonium sulfate fractionation and ion exchange chromatography. The concentration of antibody was not determined but was adjusted from a pooled fraction from the ion exchange column to give best modulation of inhibition by Compound II. […] The experiment is carried out on an ABA-100® model bichromatic analyzer (Abbott Laboratories, North Chicago, Illinois) and the following settings were used:
The substrate solution and buffer are placed in the primary syringe of the dilution plate. The buffer is pH 7.0, 0.1 M potassium phosphate, 0.1% gelatin. The substrate is acetylthiocholine at 5.0×10^-4 M with DTNB at 1.6×10^-4 M as indicator. […] In all cases, the acetylcholinesterase (T.californica) concentration is approximately 2×10^-10 M and Compound II, the inhibitor, concentration is 10×10^-7 M. Where cholylglycine is added, the concentration in the sample cup is 10^-3 M. The sample cup contains pH 7.0, 0.1 M potassium phosphate buffer containing 0.1% gelatin plus the indicated components in the table: […]

[1] = enzyme + the substance only, T = 0 (E alone .246)
[2] = enzyme + the substance only, T = 13 min (E alone .237)
[3] = enzyme + the substance only, T = 25 min (E alone .234)
[4] = enzyme + the substance only, T = 36 min (E alone .230)

Chain of acetylcholinesterase (T.californica) (P04058 22-564): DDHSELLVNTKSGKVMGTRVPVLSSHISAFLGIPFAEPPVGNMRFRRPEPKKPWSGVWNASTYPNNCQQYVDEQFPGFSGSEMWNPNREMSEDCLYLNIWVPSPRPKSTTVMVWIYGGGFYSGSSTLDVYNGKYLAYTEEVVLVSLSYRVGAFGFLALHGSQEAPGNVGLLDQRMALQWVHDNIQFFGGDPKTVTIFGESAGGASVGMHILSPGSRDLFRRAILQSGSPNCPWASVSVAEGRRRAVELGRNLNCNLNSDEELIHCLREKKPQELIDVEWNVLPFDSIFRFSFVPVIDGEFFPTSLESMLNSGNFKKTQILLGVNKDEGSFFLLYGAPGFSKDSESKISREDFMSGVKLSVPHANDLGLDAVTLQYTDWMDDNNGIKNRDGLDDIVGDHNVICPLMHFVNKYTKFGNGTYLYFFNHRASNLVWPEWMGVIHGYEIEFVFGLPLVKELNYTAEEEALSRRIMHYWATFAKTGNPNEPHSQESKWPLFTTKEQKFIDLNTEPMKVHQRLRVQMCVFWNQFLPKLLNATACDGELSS

SMILES	Change in Ad in 5 Minutes (E + Ab + CG (10^-3 M), no inhibitor, T = 0)	Change in Ad in 5 Minutes (E + Ab + CG (10^-3 M), no inhibitor, T = 13 min)	Change in Ad in 5 Minutes (E + Ab + CG (10^-3 M), no inhibitor, T = 25 min)	Change in Ad in 5 Minutes (E + Ab + CG (10^-3 M), no inhibitor, T = 36 min)	Change in Ad in 5 Minutes [1]	Change in Ad in 5 Minutes [2]	Change in Ad in 5 Minutes [3]	Change in Ad in 5 Minutes [4]	Change in Ad in 5 Minutes (E + I + Ab + CG (10^-3 M), T = 0)	Change in Ad in 5 Minutes (E + I + Ab + CG (10^-3 M), T = 13 min)	Change in Ad in 5 Minutes (E + I + Ab + CG (10^-3 M), T = 25 min)	Change in Ad in 5 Minutes (E + I + Ab + CG (10^-3 M), T = 36 min)	Change in Ad in 5 Minutes (E + I + Ab, T = 0)	Change in Ad in 5 Minutes (E + I + Ab, T = 13 min)	Change in Ad in 5 Minutes (E + I + Ab, T = 25 min)	Change in Ad in 5 Minutes (E + I + Ab, T = 36 min)	Change in Ad in 5 Minutes (E + I + CG (10^-3 M), T = 0)	Change in Ad in 5 Minutes (E + I + CG (10^-3 M), T = 13 min)	Change in Ad in 5 Minutes (E + I + CG (10^-3 M), T = 25 min)	Change in Ad in 5 Minutes (E + I + CG (10^-3 M), T = 36 min)
C[C@H](CCC(=O)NCC(=O)O)[C@H]1CC[C@H]2[C@@H]3[C@H](O)C[C@@H]4C[C@H](O)CC[C@]4(C)[C@H]3C[C@H](O)[C@]12C [CG, cholylglycine, reference compound]	.225 Ad/5 Min.	.223 Ad/5 Min.	.216 Ad/5 Min.	.207 Ad/5 Min.	.236 Ad/5 Min.	.228 Ad/5 Min.	.220 Ad/5 Min.	.211 Ad/5 Min.												
CCOP(=O)(OCCCCCNC(=O)CCCCCNC(=O)CC[C@@H](C)[C@H]1CC[C@H]2[C@@H]3[C@H](O)C[C@@H]4C[C@H](O[Si](C)(C)C(C)(C)C)CC[C@]4(C)[C@H]3C[C@H](O)[C@]12C)Oc1ccc2ccc[n+](C)c2c1 (stereo partly drawn) [Compound II]					.226 Ad/5 Min.	.072 Ad/5 Min.	.025 Ad/5 Min.	.013 Ad/5 Min.	.224 Ad/5 Min.	.078 Ad/5 Min.	.032 Ad/5 Min.	.017 Ad/5 Min.	.235 Ad/5 Min.	.192 Ad/5 Min.	.164 Ad/5 Min.	.147 Ad/5 Min.	.224 Ad/5 Min.	.062 Ad/5 Min.	.022 Ad/5 Min.	.013 Ad/5 Min.
